Ends that are not written are not given here.
Assays:
S2 cells = assay: CPP-mediated enhancement of Cy3-dsRNA uptake into insect cells; format: cell-based, Drosophila melanogaster
Source text: (§1) Sample preparation and analysis methods were based on those previously reported (Jafari et al. (201 4) “Serum stability and physicochemical characterization of a novel amphipathic peptide C6M 1 for siRNA delivery”, PLoS One, 9(5), e97797; and Gillet et al. (2017) “Investigating Engineered Ribonucleoprotein Particles to Improve Oral RNAi Delivery in Crop Insect Pests”, Frontiers in Physiology, 8(256), doi: 10.3389/fphys.2017.00256). Reagents are described in Examples 1 and 2. Nanocomplex samples were prepared in one of several ways, depending on type of CPP, RNA, or assay. For insect cell-based assays with CPP-FAM or CPP·mRNA, increasing amounts of CPP (from 25 μM to 100 μM, in 25 μM increments) were used alone or mixed with […] mRNA in water and incubated at 25° C. for 15 minutes prior to cell treatment. […] Final optimal CPP concentration was assessed by amount of fluorescent signal apparent within cells. […] Final optimal molar ratio selected for cell experiments were determined by increase of the apparent size of the Cy3-dsRNA band on a native agarose gel (FIG. 2A and FIG. 2B), and/or appearance and increase in size of the complex peak detected by a Zetasizer Ultra (Malvern Panalytical, Malvern, United Kingdom) DLS instrument (FIG. 2C). […] Final optimal BAPC1 concentration was assessed by amount of fluorescent signal apparent within cells. […]

Sf9 cells = assay: as above; format: cell-based, Spodoptera frugiperda
Source text: as §1

[1] = same amount as used in the complexes, no CPP

Substance | fluorescent signal of YFP or Cy3 in single-component treated cells (S2 cells; [1]) | fluorescent signal in single-component treated cells (Sf9 cells; [1]) | internalization of Cy3-dsRNA versus Cy3-dsRNA alone (S2 cells; 17.6 μg BAPC1 and 100 ng Cy3-dsRNA, N/P ratio of 15) | internalization of Cy3-dsRNA versus Cy3-dsRNA alone (Sf9 cells; 5.9 μg BAPC1 and 100 ng Cy3-dsRNA, N/P ratio of 5, 4 hours)
UCCUUGAUAUCCGGUUCGGUA / AGGAACUAUAGGCCAAGCCAU (Cy3 at each 5' end, chemistry not fully specified; one strand is listed 3' to 5') [Cy3-siRNA] | Low or no fluorescent signal | Low or no fluorescent signal |  | 
bis(FLIVI)-K-KKKK; bis(FLIVIGSII)-K-KKKK (chain 1 FLIVIK(FLIVI)KKKK; chain 2 FLIVIGSIIK(FLIVIGSII)KKKK; also: forms branched peptide capsules) [BAPC1] |  |  | increased internalization of labeled dsRNA | Increased internalization of labeled dsRNA

Reference: US20240041050A1, “CELL PENETRATING PEPTIDE MEDIATED RNA TRANSDUCTION WITHIN INSECT CELLS” (PIONEER HI-BRED INTERNATIONAL, INC., priority 2020, published 2024)
